# Results published in ChEMBL document CHEMBL1949518, “Synthesis and biological evaluation of some new 2-pyrazolines bearing benzene sulfonamide moiety as potential anti-inflammatory and anti-cancer agents” (Eur J Med Chem, 2011).
# Tested on: Rattus norvegicus
# Assay: Antiinflammatory activity in Wistar rat assessed as inhibition of carrageenan-induced paw edema at 20 mg/kg, po administered 30 mins before carrageenan challenge measured after 3 hrs
# Type: functional
# Settings: not given
row,Structure (SMILES),inhibition in vivo at 20 mg/kg [%]
1,Cc1cc(O)c(C2=NN(c3ccc(S(N)(=O)=O)cc3)C(c3ccc(N(C)C)cc3)C2)c(C)c1Cl (stereo not drawn),33

# Tested on: HCT-116
# Assay: Antiproliferative activity against human HCT116 cells assessed as cell growth at 10^-5 M after 48 hrs by SRB assay relative to control
# Type: functional
# Settings: HCT-116, 48 h, read-out: Activity
row,Structure (SMILES),growth at 10 µM [%]
1,Cc1cc(O)c(C2=NN(c3ccc(S(N)(=O)=O)cc3)C(c3ccc(N(C)C)cc3)C2)c(C)c1Cl (stereo not drawn),55.1

# Tested on: MDA-MB-231
# Assay: Antiproliferative activity against human MDA-MB-231 cells assessed as cell growth at 10^-5 M after 48 hrs by SRB assay relative to control
# Type: functional
# Settings: MDA-MB-231, 48 h, read-out: Activity
row,Structure (SMILES),growth at 10 µM [%]
1,Cc1cc(O)c(C2=NN(c3ccc(S(N)(=O)=O)cc3)C(c3ccc(N(C)C)cc3)C2)c(C)c1Cl (stereo not drawn),59

# Tested on: T47D
# Assay: Antiproliferative activity against human T47D cells assessed as cell growth at 10^-5 M after 48 hrs by SRB assay relative to control
# Type: functional
# Settings: read-out: Activity
row,Structure (SMILES),growth at 10 µM [%]
1,Cc1cc(O)c(C2=NN(c3ccc(S(N)(=O)=O)cc3)C(c3ccc(N(C)C)cc3)C2)c(C)c1Cl (stereo not drawn),46.9

# Tested on: SF-268
# Assay: Antiproliferative activity against human SF268 cells assessed as cell growth at 10^-5 M after 48 hrs by SRB assay relative to control
# Type: functional
# Settings: SF-268, 48 h, read-out: Activity
row,Structure (SMILES),growth at 10 µM [%]
1,Cc1cc(O)c(C2=NN(c3ccc(S(N)(=O)=O)cc3)C(c3ccc(N(C)C)cc3)C2)c(C)c1Cl (stereo not drawn),61.7

# Tested on: NCI-H322M
# Assay: Antiproliferative activity against human NCI-H322M cells assessed as cell growth at 10^-5 M after 48 hrs by SRB assay relative to control
# Type: functional
# Settings: read-out: Activity
row,Structure (SMILES),growth at 10 µM [%]
1,Cc1cc(O)c(C2=NN(c3ccc(S(N)(=O)=O)cc3)C(c3ccc(N(C)C)cc3)C2)c(C)c1Cl (stereo not drawn),75.3

# Tested on: NCI-H460
# Assay: Antiproliferative activity against human NCI-H460 cells assessed as cell growth at 10^-5 M after 48 hrs by SRB assay relative to control
# Type: functional
# Settings: NCI-H460, 48 h, read-out: Activity
row,Structure (SMILES),growth at 10 µM [%]
1,Cc1cc(O)c(C2=NN(c3ccc(S(N)(=O)=O)cc3)C(c3ccc(N(C)C)cc3)C2)c(C)c1Cl (stereo not drawn),3.35

# Tested on: CCRF-CEM
# Assay: Antiproliferative activity against human CCRF-CEM cells assessed as cell growth at 10^-5 M after 48 hrs by SRB assay relative to control
# Type: functional
# Settings: read-out: Activity
row,Structure (SMILES),growth at 10 µM [%]
1,Cc1cc(O)c(C2=NN(c3ccc(S(N)(=O)=O)cc3)C(c3ccc(N(C)C)cc3)C2)c(C)c1Cl (stereo not drawn),11.6

# Tested on: NCI-H522
# Assay: Antiproliferative activity against human NCI-H522 cells assessed as cell growth at 10^-5 M after 48 hrs by SRB assay relative to control
# Type: functional
# Settings: NCI-H522, 48 h, read-out: Activity
row,Structure (SMILES),growth at 10 µM [%]
1,Cc1cc(O)c(C2=NN(c3ccc(S(N)(=O)=O)cc3)C(c3ccc(N(C)C)cc3)C2)c(C)c1Cl (stereo not drawn),57.7

# Tested on: Malme-3M
# Assay: Antiproliferative activity against human MALME-3M cells assessed as cell growth at 10^-5 M after 48 hrs by SRB assay relative to control
# Type: functional
# Settings: read-out: Activity
row,Structure (SMILES),growth at 10 µM [%]
1,Cc1cc(O)c(C2=NN(c3ccc(S(N)(=O)=O)cc3)C(c3ccc(N(C)C)cc3)C2)c(C)c1Cl (stereo not drawn),103

# Tested on: DU-145
# Assay: Antiproliferative activity against human DU145 cells assessed as cell growth at 10^-5 M after 48 hrs by SRB assay relative to control
# Type: functional
# Settings: DU-145, 48 h, read-out: Activity
row,Structure (SMILES),growth at 10 µM [%]
1,Cc1cc(O)c(C2=NN(c3ccc(S(N)(=O)=O)cc3)C(c3ccc(N(C)C)cc3)C2)c(C)c1Cl (stereo not drawn),49.3

# Tested on: A549
# Assay: Antiproliferative activity against human A549 cells assessed as cell growth at 10^-5 M after 48 hrs by SRB assay relative to control
# Type: functional
# Settings: A549, 48 h, read-out: Activity
row,Structure (SMILES),growth at 10 µM [%]
1,Cc1cc(O)c(C2=NN(c3ccc(S(N)(=O)=O)cc3)C(c3ccc(N(C)C)cc3)C2)c(C)c1Cl (stereo not drawn),33.2

# Tested on: SF-295
# Assay: Antiproliferative activity against human SF295 cells assessed as cell growth at 10^-5 M after 48 hrs by SRB assay relative to control
# Type: functional
# Settings: SF-295, 48 h, read-out: Activity
row,Structure (SMILES),growth at 10 µM [%]
1,Cc1cc(O)c(C2=NN(c3ccc(S(N)(=O)=O)cc3)C(c3ccc(N(C)C)cc3)C2)c(C)c1Cl (stereo not drawn),20.4

# Tested on: MCF7
# Assay: Antiproliferative activity against human MCF7 cells assessed as cell growth at 10^-5 M after 48 hrs by SRB assay relative to control
# Type: functional
# Settings: MCF7, 48 h, read-out: Activity
row,Structure (SMILES),growth at 10 µM [%]
1,Cc1cc(O)c(C2=NN(c3ccc(S(N)(=O)=O)cc3)C(c3ccc(N(C)C)cc3)C2)c(C)c1Cl (stereo not drawn),13

# Tested on: IGROV-1
# Assay: Antiproliferative activity against human IGROV1 cells assessed as cell growth at 10^-5 M after 48 hrs by SRB assay relative to control
# Type: functional
# Settings: IGROV-1, 48 h, read-out: Activity
row,Structure (SMILES),growth at 10 µM [%]
1,Cc1cc(O)c(C2=NN(c3ccc(S(N)(=O)=O)cc3)C(c3ccc(N(C)C)cc3)C2)c(C)c1Cl (stereo not drawn),20.6

# Tested on: HL-60(TB)
# Assay: Antiproliferative activity against human HL-60(TB) cells assessed as cell growth at 10^-5 M after 48 hrs by SRB assay relative to control
# Type: functional
# Settings: HL-60, 48 h, read-out: Activity
row,Structure (SMILES),growth at 10 µM [%]
1,Cc1cc(O)c(C2=NN(c3ccc(S(N)(=O)=O)cc3)C(c3ccc(N(C)C)cc3)C2)c(C)c1Cl (stereo not drawn),18.4

# Tested on: SK-MEL-28
# Assay: Antiproliferative activity against human SK-MEL-28 cells assessed as cell growth at 10^-5 M after 48 hrs by SRB assay relative to control
# Type: functional
# Settings: SK-MEL-28, 48 h, read-out: Activity
row,Structure (SMILES),growth at 10 µM [%]
1,Cc1cc(O)c(C2=NN(c3ccc(S(N)(=O)=O)cc3)C(c3ccc(N(C)C)cc3)C2)c(C)c1Cl (stereo not drawn),76.3

# Tested on: NCI/ADR-RES
# Assay: Antiproliferative activity against human NCI/ADR-RES cells assessed as cell growth at 10^-5 M after 48 hrs by SRB assay relative to control
# Type: functional
# Settings: read-out: Activity
row,Structure (SMILES),growth at 10 µM [%]
1,Cc1cc(O)c(C2=NN(c3ccc(S(N)(=O)=O)cc3)C(c3ccc(N(C)C)cc3)C2)c(C)c1Cl (stereo not drawn),80.3

# Tested on: SNB-19
# Assay: Antiproliferative activity against human SNB19 cells assessed as cell growth at 10^-5 M after 48 hrs by SRB assay relative to control
# Type: functional
# Settings: SNB-19, 48 h, read-out: Activity
row,Structure (SMILES),growth at 10 µM [%]
1,Cc1cc(O)c(C2=NN(c3ccc(S(N)(=O)=O)cc3)C(c3ccc(N(C)C)cc3)C2)c(C)c1Cl (stereo not drawn),89.8

# Tested on: UACC-62
# Assay: Antiproliferative activity against human UACC62 cells assessed as cell growth at 10^-5 M after 48 hrs by SRB assay relative to control
# Type: functional
# Settings: UACC-62, 48 h, read-out: Activity
row,Structure (SMILES),growth at 10 µM [%]
1,Cc1cc(O)c(C2=NN(c3ccc(S(N)(=O)=O)cc3)C(c3ccc(N(C)C)cc3)C2)c(C)c1Cl (stereo not drawn),53

# Tested on: SW-620
# Assay: Antiproliferative activity against human SW620 cells assessed as cell growth at 10^-5 M after 48 hrs by SRB assay relative to control
# Type: functional
# Settings: SW-620, 48 h, read-out: Activity
row,Structure (SMILES),growth at 10 µM [%]
1,Cc1cc(O)c(C2=NN(c3ccc(S(N)(=O)=O)cc3)C(c3ccc(N(C)C)cc3)C2)c(C)c1Cl (stereo not drawn),48.5

# Tested on: OVCAR-3
# Assay: Antiproliferative activity against human OVCAR3 cells assessed as cell growth at 10^-5 M after 48 hrs by SRB assay relative to control
# Type: functional
# Settings: OVCAR-3, 48 h, read-out: Activity
row,Structure (SMILES),growth at 10 µM [%]
1,Cc1cc(O)c(C2=NN(c3ccc(S(N)(=O)=O)cc3)C(c3ccc(N(C)C)cc3)C2)c(C)c1Cl (stereo not drawn),68

# Tested on: SR
# Assay: Antiproliferative activity against human SR cells assessed as cell growth at 10^-5 M after 48 hrs by SRB assay relative to control
# Type: functional
# Settings: read-out: Activity
row,Structure (SMILES),growth at 10 µM [%]
1,Cc1cc(O)c(C2=NN(c3ccc(S(N)(=O)=O)cc3)C(c3ccc(N(C)C)cc3)C2)c(C)c1Cl (stereo not drawn),-24.1

# Tested on: HCT-15
# Assay: Antiproliferative activity against human HCT15 cells assessed as cell growth at 10^-5 M after 48 hrs by SRB assay relative to control
# Type: functional
# Settings: HCT-15, 48 h, read-out: Activity
row,Structure (SMILES),growth at 10 µM [%]
1,Cc1cc(O)c(C2=NN(c3ccc(S(N)(=O)=O)cc3)C(c3ccc(N(C)C)cc3)C2)c(C)c1Cl (stereo not drawn),65.2

# Tested on: COLO 205
# Assay: Antiproliferative activity against human COLO205 cells assessed as cell growth at 10^-5 M after 48 hrs by SRB assay relative to control
# Type: functional
# Settings: COLO 205, 48 h, read-out: Activity
row,Structure (SMILES),growth at 10 µM [%]
1,Cc1cc(O)c(C2=NN(c3ccc(S(N)(=O)=O)cc3)C(c3ccc(N(C)C)cc3)C2)c(C)c1Cl (stereo not drawn),30.8

# Tested on: NCI-H23
# Assay: Antiproliferative activity against human NCI-H23 cells assessed as cell growth at 10^-5 M after 48 hrs by SRB assay relative to control
# Type: functional
# Settings: NCI-H23, 48 h, read-out: Activity
row,Structure (SMILES),growth at 10 µM [%]
1,Cc1cc(O)c(C2=NN(c3ccc(S(N)(=O)=O)cc3)C(c3ccc(N(C)C)cc3)C2)c(C)c1Cl (stereo not drawn),78.8

# Tested on: MDA-MB-468
# Assay: Antiproliferative activity against human MDA-MB-468 cells assessed as cell growth at 10^-5 M after 48 hrs by SRB assay relative to control
# Type: functional
# Settings: MDA-MB-468, 48 h, read-out: Activity
row,Structure (SMILES),growth at 10 µM [%]
1,Cc1cc(O)c(C2=NN(c3ccc(S(N)(=O)=O)cc3)C(c3ccc(N(C)C)cc3)C2)c(C)c1Cl (stereo not drawn),43.7

# Tested on: SF-539
# Assay: Antiproliferative activity against human SF539 cells assessed as cell growth at 10^-5 M after 48 hrs by SRB assay relative to control
# Type: functional
# Settings: SF-539, 48 h, read-out: Activity
row,Structure (SMILES),growth at 10 µM [%]
1,Cc1cc(O)c(C2=NN(c3ccc(S(N)(=O)=O)cc3)C(c3ccc(N(C)C)cc3)C2)c(C)c1Cl (stereo not drawn),79

# Tested on: PC-3
# Assay: Antiproliferative activity against human PC3 cells assessed as cell growth at 10^-5 M after 48 hrs by SRB assay relative to control
# Type: functional
# Settings: PC-3, 48 h, read-out: Activity
row,Structure (SMILES),growth at 10 µM [%]
1,Cc1cc(O)c(C2=NN(c3ccc(S(N)(=O)=O)cc3)C(c3ccc(N(C)C)cc3)C2)c(C)c1Cl (stereo not drawn),12.1

# Tested on: SK-OV-3
# Assay: Antiproliferative activity against human SKOV3 cells assessed as cell growth at 10^-5 M after 48 hrs by SRB assay relative to control
# Type: functional
# Settings: SK-OV-3, 48 h, read-out: Activity
row,Structure (SMILES),growth at 10 µM [%]
1,Cc1cc(O)c(C2=NN(c3ccc(S(N)(=O)=O)cc3)C(c3ccc(N(C)C)cc3)C2)c(C)c1Cl (stereo not drawn),81.6

# Tested on: MOLT-4
# Assay: Antiproliferative activity against human MOLT4 cells assessed as cell growth at 10^-5 M after 48 hrs by SRB assay relative to control
# Type: functional
# Settings: MOLT-4, 48 h, read-out: Activity
row,Structure (SMILES),growth at 10 µM [%]
1,Cc1cc(O)c(C2=NN(c3ccc(S(N)(=O)=O)cc3)C(c3ccc(N(C)C)cc3)C2)c(C)c1Cl (stereo not drawn),14.3

# Tested on: RXF 393
# Assay: Antiproliferative activity against human RXF393 cells assessed as cell growth at 10^-5 M after 48 hrs by SRB assay relative to control
# Type: functional
# Settings: RXF 393, 48 h, read-out: Activity
row,Structure (SMILES),growth at 10 µM [%]
1,Cc1cc(O)c(C2=NN(c3ccc(S(N)(=O)=O)cc3)C(c3ccc(N(C)C)cc3)C2)c(C)c1Cl (stereo not drawn),48.1

# Tested on: ACHN
# Assay: Antiproliferative activity against human ACHN cells assessed as cell growth at 10^-5 M after 48 hrs by SRB assay relative to control
# Type: functional
# Settings: read-out: Activity
row,Structure (SMILES),growth at 10 µM [%]
1,Cc1cc(O)c(C2=NN(c3ccc(S(N)(=O)=O)cc3)C(c3ccc(N(C)C)cc3)C2)c(C)c1Cl (stereo not drawn),58.7
